Experimental data published in ChEMBL document CHEMBL1127828, “The discovery of an unusually selective and novel cocaine analog: difluoropine. Synthesis and inhibition of binding at cocaine recognition sites” (J Med Chem, 1994).

target: Sodium-dependent serotonin transporter (Homo sapiens, UniProt P31645); test: Binding affinity of [3H]citalopram for serotonin transporter in monkey; parameters: species or system Cercopithecidae
Sequence (P31645 whole entry): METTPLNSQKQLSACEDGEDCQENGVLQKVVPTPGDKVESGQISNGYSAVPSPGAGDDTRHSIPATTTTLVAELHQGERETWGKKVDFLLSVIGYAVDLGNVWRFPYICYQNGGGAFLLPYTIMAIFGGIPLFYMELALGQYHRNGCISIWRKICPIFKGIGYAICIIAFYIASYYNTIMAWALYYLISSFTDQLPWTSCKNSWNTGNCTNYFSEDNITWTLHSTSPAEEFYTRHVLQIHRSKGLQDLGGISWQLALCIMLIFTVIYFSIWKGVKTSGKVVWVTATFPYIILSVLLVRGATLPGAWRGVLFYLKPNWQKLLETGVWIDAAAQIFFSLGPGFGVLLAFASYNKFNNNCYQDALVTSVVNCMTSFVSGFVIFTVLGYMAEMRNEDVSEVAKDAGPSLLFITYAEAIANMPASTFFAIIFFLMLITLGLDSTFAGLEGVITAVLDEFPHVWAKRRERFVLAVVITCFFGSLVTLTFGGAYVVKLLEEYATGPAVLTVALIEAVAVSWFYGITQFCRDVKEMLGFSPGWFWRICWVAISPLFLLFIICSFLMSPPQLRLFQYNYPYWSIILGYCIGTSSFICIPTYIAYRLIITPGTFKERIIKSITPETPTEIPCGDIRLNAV

| Compound | IC50 |
| --- | --- |
| COC(=O)C1C2CC[C@H](C[C@H]1OC(c1ccc(F)cc1)c1ccc(F)cc1)N2C (stereo in doubt; S-10) | 4.93 µM |
| COC(=O)C1C2CC[C@H](C[C@@H]1OC(c1ccc(F)cc1)c1ccc(F)cc1)N2C (stereo in doubt; R-7) | 5.5 µM |
| COC(=O)C1C2CC[C@H](C[C@@H]1c1ccc(I)cc1)N2C (some centres undefined) | 0.00253 µM |
| COC(=O)C1C2CC[C@H](C[C@H]1OC(c1ccc(F)cc1)c1ccc(F)cc1)N2C (stereo in doubt; S-7) | 4.09 µM |
| COC(=O)C1C2CC[C@H](C[C@@H]1OC(c1ccc(F)cc1)c1ccc(F)cc1)N2C (stereo in doubt; R-9) | 1.46 µM |
| COC(=O)C1C2CC[C@H](C[C@H]1OC(c1ccc(F)cc1)c1ccc(F)cc1)N2C (stereo in doubt; R-8) | 1.98 µM |
| COC(=O)C1C2CC[C@H](C[C@H]1OC(c1ccc(F)cc1)c1ccc(F)cc1)N2C (stereo in doubt; R-10) | 9.15 µM |
| COC(=O)[C@@H]1[C@H]2CCC(C[C@H]1OC(c1ccc(F)cc1)c1ccc(F)cc1)N2C | 1.83 µM |
| COC(=O)[C@@H]1C2CCC(C[C@@H]1OC(c1ccc(F)cc1)c1ccc(F)cc1)N2C (some centres undefined) | 3.53 µM |
